For assay [1], the target named is T1, Serine/threonine-protein kinase TAO1 (Homo sapiens) (UniProt Q7L7X3).
T1 sequence (whole entry): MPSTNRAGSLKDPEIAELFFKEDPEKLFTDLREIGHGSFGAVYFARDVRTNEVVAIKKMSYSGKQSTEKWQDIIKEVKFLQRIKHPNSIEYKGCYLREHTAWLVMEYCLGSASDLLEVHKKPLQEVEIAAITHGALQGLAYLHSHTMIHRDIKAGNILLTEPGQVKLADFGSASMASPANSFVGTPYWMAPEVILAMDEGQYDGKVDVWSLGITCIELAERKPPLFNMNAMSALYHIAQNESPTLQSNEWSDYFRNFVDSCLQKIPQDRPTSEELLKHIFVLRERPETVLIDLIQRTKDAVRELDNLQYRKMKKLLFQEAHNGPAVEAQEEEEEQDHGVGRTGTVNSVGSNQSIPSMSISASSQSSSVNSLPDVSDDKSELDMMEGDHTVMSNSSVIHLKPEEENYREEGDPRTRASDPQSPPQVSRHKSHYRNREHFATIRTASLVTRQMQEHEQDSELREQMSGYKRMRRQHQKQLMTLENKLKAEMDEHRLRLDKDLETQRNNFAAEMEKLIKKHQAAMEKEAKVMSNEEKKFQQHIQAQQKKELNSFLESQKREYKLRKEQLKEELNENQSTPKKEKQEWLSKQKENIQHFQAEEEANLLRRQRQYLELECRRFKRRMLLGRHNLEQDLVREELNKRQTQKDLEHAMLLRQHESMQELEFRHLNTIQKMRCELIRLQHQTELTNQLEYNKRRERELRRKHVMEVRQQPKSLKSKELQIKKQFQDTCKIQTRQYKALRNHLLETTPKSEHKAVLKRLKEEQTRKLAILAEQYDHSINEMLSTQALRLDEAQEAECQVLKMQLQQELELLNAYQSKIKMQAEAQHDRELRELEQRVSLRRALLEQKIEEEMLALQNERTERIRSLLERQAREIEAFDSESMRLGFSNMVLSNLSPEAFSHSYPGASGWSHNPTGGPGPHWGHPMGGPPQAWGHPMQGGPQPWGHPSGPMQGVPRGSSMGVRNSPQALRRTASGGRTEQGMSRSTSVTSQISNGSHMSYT
The experiment in a line: Inhibition of TAO1 in human NCI-H929 cells at 10 uM by mass spectroscopic analysis relative to control. Format: cell-based.

The target of assay [2] is Tyrosine-protein kinase ABL1 (Homo sapiens) (UniProt P00519). The experiment in a line: Inhibition of ABL in human NCI-H929 cells at 10 uM by mass spectroscopic analysis relative to control. In kind it is cell-based.
Assay [3] deals with Serine/threonine-protein kinase MARK1 (Homo sapiens) (UniProt Q9P0L2). In words: Inhibition of MARK1 in human NCI-H929 cells at 10 uM by mass spectroscopic analysis relative to control. Format: cell-based.
In assay [4] the target is Cyclin-dependent kinase 8 (Homo sapiens) (UniProt P49336). The experiment in a line: Inhibition of CDK8 in human NCI-H929 cells at 10 uM by mass spectroscopic analysis relative to control. In kind it is cell-based.
The target of assay [5] is T2, Serine/threonine-protein kinase 3 (Homo sapiens) (UniProt Q13188).
T2 sequence (whole entry): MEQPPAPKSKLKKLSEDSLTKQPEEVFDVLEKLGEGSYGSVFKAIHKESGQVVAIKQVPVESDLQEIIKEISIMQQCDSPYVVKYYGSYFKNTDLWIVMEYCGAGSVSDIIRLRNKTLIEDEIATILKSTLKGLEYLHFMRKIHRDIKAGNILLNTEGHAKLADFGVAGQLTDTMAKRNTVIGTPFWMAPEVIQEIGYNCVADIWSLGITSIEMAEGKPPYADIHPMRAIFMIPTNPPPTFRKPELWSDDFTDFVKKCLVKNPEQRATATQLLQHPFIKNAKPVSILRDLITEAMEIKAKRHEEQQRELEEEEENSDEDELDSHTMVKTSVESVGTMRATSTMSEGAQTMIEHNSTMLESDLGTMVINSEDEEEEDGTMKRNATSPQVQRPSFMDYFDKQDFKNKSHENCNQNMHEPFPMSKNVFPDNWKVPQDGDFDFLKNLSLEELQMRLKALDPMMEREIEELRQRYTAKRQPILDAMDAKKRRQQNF
In words: Inhibition of STK3 (unknown origin) using fluorescein-labelled Ser/Thr-07 peptide as substrate incubated for 1 hr in presence of ATP at Km concentration by Z-LYTE assay.

Assay [6] deals with T3, NUAK family SNF1-like kinase 1 (Homo sapiens) (UniProt O60285).
T3 sequence (whole entry): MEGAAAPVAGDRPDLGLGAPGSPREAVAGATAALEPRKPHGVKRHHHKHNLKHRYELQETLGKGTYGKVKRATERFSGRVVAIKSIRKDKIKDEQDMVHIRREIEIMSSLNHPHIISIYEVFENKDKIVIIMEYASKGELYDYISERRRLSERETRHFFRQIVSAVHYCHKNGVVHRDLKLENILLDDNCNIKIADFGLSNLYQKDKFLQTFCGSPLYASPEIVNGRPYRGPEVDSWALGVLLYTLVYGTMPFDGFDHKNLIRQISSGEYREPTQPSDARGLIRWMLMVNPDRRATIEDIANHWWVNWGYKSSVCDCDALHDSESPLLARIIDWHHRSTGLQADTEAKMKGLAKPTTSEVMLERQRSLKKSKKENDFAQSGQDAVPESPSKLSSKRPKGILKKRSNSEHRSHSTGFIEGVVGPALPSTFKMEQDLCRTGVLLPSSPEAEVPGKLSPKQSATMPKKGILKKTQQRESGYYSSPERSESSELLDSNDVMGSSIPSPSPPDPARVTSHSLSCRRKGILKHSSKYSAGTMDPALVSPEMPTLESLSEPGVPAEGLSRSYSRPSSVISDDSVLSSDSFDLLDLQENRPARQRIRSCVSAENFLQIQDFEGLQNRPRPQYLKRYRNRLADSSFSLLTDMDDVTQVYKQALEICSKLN
The experiment in a line: Inhibition of NuaK1 in human NCI-H929 cells at 10 uM by mass spectroscopic analysis relative to control. In kind it is cell-based.

Sequence of Tyrosine-protein kinase ABL1 (Homo sapiens) (P00519 whole entry): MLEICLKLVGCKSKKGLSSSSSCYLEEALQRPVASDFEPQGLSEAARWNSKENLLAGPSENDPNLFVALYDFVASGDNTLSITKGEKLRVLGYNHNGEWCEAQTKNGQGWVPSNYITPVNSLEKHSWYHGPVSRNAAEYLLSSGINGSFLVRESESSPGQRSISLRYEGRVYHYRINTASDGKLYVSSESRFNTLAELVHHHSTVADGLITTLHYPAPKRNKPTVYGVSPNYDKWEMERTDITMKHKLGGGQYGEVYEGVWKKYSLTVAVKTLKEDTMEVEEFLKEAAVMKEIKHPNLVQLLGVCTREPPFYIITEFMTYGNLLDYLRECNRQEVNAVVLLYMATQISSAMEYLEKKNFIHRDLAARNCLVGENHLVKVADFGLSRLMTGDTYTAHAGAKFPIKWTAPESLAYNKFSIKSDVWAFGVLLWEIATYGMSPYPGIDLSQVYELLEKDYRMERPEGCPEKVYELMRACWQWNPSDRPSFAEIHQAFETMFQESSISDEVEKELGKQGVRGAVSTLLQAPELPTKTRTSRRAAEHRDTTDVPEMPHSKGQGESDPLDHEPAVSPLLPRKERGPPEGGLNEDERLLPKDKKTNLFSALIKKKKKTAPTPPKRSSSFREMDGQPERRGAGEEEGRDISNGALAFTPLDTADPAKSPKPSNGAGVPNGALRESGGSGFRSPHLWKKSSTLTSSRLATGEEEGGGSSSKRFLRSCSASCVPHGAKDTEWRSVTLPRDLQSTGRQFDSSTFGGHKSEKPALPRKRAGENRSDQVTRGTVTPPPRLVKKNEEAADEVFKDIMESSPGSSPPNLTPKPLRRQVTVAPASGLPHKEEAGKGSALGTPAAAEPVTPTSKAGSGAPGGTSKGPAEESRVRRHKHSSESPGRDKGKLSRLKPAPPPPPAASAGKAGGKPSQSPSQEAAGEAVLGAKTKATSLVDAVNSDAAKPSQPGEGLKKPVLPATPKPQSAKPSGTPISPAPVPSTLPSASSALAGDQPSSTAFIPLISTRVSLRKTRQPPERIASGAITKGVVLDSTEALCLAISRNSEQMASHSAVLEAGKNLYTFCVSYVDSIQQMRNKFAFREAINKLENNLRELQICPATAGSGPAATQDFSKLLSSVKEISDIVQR
Sequence of Cyclin-dependent kinase 8 (Homo sapiens) (P49336 whole entry): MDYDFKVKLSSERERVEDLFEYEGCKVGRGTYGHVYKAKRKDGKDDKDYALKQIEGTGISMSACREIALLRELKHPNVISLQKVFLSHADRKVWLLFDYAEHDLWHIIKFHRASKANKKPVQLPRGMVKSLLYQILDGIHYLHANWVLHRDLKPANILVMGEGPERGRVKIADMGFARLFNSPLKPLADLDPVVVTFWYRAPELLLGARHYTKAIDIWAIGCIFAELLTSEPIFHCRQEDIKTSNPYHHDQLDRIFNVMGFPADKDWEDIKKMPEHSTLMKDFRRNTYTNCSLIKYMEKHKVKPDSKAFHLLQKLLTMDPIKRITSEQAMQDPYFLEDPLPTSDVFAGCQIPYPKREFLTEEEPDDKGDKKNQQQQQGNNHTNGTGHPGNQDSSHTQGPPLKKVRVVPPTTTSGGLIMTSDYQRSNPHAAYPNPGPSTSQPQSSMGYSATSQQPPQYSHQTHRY
Sequence of Serine/threonine-protein kinase MARK1 (Homo sapiens) (Q9P0L2 whole entry, looked up): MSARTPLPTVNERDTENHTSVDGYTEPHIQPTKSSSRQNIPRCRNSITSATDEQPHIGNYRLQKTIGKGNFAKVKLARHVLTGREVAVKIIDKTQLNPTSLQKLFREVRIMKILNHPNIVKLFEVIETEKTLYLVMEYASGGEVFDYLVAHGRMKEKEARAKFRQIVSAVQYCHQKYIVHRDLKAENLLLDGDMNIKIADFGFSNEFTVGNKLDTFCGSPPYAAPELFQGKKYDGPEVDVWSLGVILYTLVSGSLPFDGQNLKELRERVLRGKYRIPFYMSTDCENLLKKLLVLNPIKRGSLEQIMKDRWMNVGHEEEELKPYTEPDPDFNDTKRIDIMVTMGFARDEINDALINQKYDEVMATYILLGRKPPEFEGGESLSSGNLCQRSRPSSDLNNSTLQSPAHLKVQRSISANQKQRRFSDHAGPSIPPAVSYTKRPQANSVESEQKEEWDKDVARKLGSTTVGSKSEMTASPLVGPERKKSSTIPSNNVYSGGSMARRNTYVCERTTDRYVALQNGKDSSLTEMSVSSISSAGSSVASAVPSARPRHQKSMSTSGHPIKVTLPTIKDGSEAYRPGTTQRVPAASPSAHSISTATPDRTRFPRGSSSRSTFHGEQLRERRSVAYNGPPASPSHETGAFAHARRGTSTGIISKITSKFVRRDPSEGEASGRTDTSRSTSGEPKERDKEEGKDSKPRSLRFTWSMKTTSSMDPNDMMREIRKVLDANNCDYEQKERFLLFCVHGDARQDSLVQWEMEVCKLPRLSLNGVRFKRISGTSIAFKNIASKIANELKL

What is called inhibition is the change of the read-out against control, counted positive when it falls. In the case of `COc1cc(NS(=O)(=O)C2CC2)ccc1-c1cnc(N)c(-c2ccc3c(c2)CCNC3=O)c1`, the inhibition in assay [1], in assay [2], in assay [3] and in assay [4] was 0% each time.

In general, IC50 refers to the midpoint of a concentration-inhibition curve. Regarding `Nc1ncc(-c2cccc3ncsc23)cc1-c1ccc2c(c1)CCNC2=O`, the half-inhibitory concentration (IC50) in assay [5] turned out to be 40 nM. For the same compound, the inhibition in assay [1] was 0%; in assay [2], 50%; in assay [3] it was 0%; in assay [4], 50%; in assay [6], less than 90%.

As for `Nc1ncc(-c2cccc([N+](=O)[O-])c2F)cc1-c1ccc2c(c1)CCNC2=O`, the IC50 in assay [5] is less than 40 nM.

Regarding `Nc1ncc(-c2ccc(NS(=O)(=O)C3CC3)cc2OC2CCCCC2)cc1-c1ccc2c(c1)CCNC2=O`, the inhibition in assay [1] is 0%; in assay [2], 0%; in assay [3], 0%; in assay [4], 0%; in assay [6], 50%.

`Nc1ncc(-c2ccc(NS(=O)(=O)C3CC3)cc2F)cc1-c1ccc2c(c1)CCNC2=O`: the inhibition in assay [2], in assay [3] and in assay [4] was 0% throughout.

Take `CN(C1CC1)S(=O)(=O)c1ccc(-c2cnc(N)c(-c3ccc4c(c3)CCNC4=O)c2)c(F)c1`: the IC50 in assay [5] is less than 40 nM. Further, the inhibition in assay [2] worked out at 0%; in assay [3], 0%; in assay [4], 0%; in assay [6], 50%.

The record behind these values is ChEMBL document CHEMBL4804281, “STK4 inhibitors for treatment of hematologic malignancies” (2020).
